ChEMBL document CHEMBL1201862, “PubChem BioAssay data set” (2004)
The source made the active and inactive calls.

Tests used:
[1] = target: SUMO E1/E2 (Homo sapiens, UniProt P63279+Q9UBE0+Q9UBT2); assay: SAR analysis of SUMOylation using HTRF in an in-Vitro dose response assay. [Related pubchem assays (depositor defined):AID2006, AID2011, AID2018, AID2069, AID2658]; format: functional
[2] = target: Cytochrome P450 2D6 (Homo sapiens, UniProt P10635);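 also: CYP2D6 member of a cytochrome P450 panel assay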
Sequence of Cytochrome P450 2D6 (P10635 whole entry): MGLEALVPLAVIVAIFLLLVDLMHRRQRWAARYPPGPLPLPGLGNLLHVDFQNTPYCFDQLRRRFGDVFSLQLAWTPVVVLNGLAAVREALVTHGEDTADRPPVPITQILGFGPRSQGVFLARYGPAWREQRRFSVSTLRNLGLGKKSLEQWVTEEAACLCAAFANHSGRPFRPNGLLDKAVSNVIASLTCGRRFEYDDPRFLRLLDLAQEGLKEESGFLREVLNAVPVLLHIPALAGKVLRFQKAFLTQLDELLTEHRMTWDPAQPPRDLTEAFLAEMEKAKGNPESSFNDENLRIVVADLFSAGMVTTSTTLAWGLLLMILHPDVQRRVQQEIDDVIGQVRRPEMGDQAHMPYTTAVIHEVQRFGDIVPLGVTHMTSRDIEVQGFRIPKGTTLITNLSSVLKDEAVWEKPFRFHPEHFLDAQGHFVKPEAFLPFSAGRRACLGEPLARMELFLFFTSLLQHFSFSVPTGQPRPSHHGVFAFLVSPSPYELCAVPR

[3] = target: Cytochrome P450 2C19 (Homo sapiens, UniProt P33261); assay: Cytochrome panel assay with activity outcomes. Panel member name: p450-cyp2c19 Compounds with AC50 equal or less than 10 uM are considered active; format: functional
Sequence of Cytochrome P450 2C19 (P33261 whole entry): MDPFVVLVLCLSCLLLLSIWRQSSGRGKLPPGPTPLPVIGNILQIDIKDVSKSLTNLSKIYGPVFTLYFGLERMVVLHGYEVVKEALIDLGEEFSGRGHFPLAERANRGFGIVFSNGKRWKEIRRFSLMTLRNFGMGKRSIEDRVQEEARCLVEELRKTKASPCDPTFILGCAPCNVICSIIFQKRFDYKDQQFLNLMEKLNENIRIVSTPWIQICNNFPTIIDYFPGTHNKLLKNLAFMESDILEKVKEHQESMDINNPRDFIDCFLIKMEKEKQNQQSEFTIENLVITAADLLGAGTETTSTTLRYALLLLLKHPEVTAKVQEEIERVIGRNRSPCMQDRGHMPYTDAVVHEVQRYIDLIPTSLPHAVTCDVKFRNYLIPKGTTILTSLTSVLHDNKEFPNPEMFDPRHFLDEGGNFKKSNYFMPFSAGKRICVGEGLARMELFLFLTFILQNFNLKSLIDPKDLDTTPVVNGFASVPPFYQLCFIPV

[4] = target: Cytochrome P450 3A4 (Homo sapiens, UniProt P08684);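 also: CYP3A4 tested as one member of a cytochrome P450 panel screen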
Sequence of Cytochrome P450 3A4 (P08684 whole entry): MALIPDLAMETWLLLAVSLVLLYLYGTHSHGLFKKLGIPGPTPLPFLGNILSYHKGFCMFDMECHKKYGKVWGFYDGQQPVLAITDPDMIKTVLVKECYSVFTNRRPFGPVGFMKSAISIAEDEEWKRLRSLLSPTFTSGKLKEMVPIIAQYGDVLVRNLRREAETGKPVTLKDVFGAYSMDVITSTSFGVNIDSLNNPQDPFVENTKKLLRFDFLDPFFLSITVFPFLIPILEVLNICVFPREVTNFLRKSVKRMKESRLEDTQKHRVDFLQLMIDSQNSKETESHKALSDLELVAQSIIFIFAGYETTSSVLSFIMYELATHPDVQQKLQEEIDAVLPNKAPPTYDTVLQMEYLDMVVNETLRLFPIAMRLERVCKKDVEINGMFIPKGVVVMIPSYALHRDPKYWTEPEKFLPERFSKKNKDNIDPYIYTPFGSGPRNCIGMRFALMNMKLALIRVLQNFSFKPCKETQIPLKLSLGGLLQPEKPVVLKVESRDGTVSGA

[5] = target: T1, Cytochrome P450 2C9 (Homo sapiens, UniProt P11712)
T1 sequence (P11712 whole entry): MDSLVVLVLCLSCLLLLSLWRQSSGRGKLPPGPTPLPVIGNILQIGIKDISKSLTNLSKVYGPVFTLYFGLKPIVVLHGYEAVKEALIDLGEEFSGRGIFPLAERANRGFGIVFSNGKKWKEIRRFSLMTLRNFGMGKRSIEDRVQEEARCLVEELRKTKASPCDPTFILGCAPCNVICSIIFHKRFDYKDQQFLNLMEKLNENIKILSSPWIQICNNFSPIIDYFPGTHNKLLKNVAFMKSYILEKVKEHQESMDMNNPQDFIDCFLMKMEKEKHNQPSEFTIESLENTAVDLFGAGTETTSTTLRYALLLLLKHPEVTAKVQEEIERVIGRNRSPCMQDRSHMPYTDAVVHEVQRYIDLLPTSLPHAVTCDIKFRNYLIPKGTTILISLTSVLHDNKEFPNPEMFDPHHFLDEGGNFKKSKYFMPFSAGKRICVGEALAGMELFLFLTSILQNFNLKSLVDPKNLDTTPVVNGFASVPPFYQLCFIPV

[6] = target: T2, Cytochrome P450 1A2 (Homo sapiens, UniProt P05177);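 also: PubChem cytochrome P450 panel assay, CYP1A2 panel member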
T2 sequence (P05177 whole entry): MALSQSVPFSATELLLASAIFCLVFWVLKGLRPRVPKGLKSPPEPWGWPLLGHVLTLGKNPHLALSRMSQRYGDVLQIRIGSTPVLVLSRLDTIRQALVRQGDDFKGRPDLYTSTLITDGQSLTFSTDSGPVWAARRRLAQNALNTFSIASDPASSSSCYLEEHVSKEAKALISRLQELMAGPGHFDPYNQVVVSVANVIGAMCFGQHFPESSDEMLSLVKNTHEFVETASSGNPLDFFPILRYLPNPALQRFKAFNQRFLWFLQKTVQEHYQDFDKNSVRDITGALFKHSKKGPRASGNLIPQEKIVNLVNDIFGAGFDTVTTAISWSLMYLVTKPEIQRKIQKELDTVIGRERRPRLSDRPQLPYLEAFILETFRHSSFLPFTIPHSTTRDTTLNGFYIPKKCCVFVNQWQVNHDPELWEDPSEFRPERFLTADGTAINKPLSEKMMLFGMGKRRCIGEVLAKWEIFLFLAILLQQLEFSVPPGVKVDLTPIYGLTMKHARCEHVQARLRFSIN

[7] = NIH3T3 cell viability loss – ATP luminescence, mouse fibroblasts, counter-screen, dose response (AID 2010); format: functional, cell-based;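 also: cells exposed to compound for about 90 hours before reading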
[8] = decrease of insulin promoter-GFP reporter – imaging, high-content screening, mouse beta cells (AID 1628); format: functional; conditions: MIN6
[9] = tested on: INS1; assay: INS-1E survival protection against cytokine death – cell-based, luminescence, retest, dose response (AID 449756); format: functional; conditions: Rattus norvegicus;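 also: cell death triggered by IL-1 beta plus TNF-alpha plus IFN-gamma mixture; protective hits raise ATP signal compared with cytokine alone wells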
[10] = MIN6 cell viability loss – mouse insulinoma, cytotoxicity control, dose response (AID 2122); format: functional;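 also: confirmatory high-throughput counterscreen run to flag cytotoxic compounds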
[11] = target: T3, Ubiquitin-conjugating enzyme E2 N (Homo sapiens, UniProt P61088); format: functional
T3 sequence (P61088 whole entry): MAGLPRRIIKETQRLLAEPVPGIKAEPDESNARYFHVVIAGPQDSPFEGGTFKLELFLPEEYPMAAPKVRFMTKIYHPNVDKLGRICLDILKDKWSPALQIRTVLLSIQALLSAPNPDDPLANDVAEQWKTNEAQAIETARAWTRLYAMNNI

[12] = target: T4, Bcl-2-related protein A1 (Mus musculus, UniProt Q07440); format: functional;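 also: confirmatory dose–response counterscreen on Bfl-1, used to check hits from a UBC13 polyubiquitin inhibitor campaign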
T4 sequence (Q07440 whole entry): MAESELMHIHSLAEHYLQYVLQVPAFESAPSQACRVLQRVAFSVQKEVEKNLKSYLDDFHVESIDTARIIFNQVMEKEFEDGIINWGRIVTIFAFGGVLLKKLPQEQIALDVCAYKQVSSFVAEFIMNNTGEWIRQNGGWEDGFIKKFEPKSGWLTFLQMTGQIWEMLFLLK

[13] = viability loss in THP-1 monocytes – THP-1 cells, cytotoxicity control for Vif-APOBEC3G degradation inhibitor project, dose response (AID 1117359); format: functional; conditions: THP-1
[14] = target: T3, Ubiquitin-conjugating enzyme E2 N; format: functional; remark: listed apart in the source
[15] = Trypanosoma cruzi growth suppression in host cells – NIH3T3 host cells, beta-gal luminescence, confirmation (AID 2044); format: functional, cell-based;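 also: intracellular parasites grown in NIH/3T3 mouse fibroblasts as host cells; luminescent beta-galactosidase reporter signal from transgenic T. cruzi replicating inside host cells; inhibitors lower the luminescence signal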
[16] = target: Tumor necrosis factor (Homo sapiens, UniProt P01375); assay: analog potency on TNFa NF-kB signaling – cell-based, set 3, SAR follow-up (AID 2801); format: functional
Sequence of Tumor necrosis factor (P01375 whole entry, the tested form may be a part): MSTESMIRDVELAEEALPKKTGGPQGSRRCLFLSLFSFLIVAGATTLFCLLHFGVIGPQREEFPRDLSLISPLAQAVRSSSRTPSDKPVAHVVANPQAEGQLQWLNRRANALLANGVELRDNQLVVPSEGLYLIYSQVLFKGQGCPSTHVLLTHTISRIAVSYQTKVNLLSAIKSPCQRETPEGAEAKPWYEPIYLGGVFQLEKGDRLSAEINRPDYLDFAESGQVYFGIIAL

[17] = target: T5, Nucleotide-binding oligomerization domain-containing protein 1 (Homo sapiens, UniProt Q9Y239); assay: SAR analysis of compounds that inhibit NOD1 - Set 3. [Related pubchem assays (depositor defined):AID1566, AID1575, AID1578, AID1849, AID1852, AID2333, AID2335, AID2466]; format: functional
T5 sequence (Q9Y239 whole entry): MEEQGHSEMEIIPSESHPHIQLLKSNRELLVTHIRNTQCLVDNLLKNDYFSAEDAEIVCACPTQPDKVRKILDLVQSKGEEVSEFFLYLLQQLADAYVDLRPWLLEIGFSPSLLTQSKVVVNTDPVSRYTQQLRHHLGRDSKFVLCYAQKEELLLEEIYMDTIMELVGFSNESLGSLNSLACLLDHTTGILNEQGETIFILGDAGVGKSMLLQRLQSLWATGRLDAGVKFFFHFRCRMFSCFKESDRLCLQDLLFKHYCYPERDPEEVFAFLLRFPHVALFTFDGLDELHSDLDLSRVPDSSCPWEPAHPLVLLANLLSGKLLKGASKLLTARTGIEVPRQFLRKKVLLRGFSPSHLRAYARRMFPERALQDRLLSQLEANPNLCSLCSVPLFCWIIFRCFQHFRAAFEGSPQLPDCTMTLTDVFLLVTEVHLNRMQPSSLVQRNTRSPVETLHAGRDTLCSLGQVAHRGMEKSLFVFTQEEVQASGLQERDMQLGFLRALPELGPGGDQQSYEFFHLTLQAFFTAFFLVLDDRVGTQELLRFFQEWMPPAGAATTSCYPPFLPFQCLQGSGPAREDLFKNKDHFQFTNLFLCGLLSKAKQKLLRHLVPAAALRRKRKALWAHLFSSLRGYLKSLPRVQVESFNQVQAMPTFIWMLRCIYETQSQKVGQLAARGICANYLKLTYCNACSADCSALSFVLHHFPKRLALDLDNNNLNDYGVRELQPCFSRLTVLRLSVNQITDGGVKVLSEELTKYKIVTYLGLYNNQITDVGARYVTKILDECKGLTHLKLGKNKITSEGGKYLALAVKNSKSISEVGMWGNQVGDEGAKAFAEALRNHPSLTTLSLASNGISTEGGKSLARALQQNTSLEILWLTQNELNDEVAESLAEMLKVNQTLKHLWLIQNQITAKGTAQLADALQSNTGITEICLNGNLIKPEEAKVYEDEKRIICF

[18] = tested on: HEK293; assay: SAR analysis of compounds that are cytotoxic to HEK293 - Set 2. [Related pubchem assays (depositor defined):AID1575, AID1578, AID1849, AID2001, AID2333, AID2334, AID2335, AID2337, AID2800]; format: functional, cell-based; conditions: Homo sapiens
[19] = target: T5, Nucleotide-binding oligomerization domain-containing protein 1; assay: SAR analysis of NF-kappaB dependent luciferase using DAP as an inducer - Set 2. [Related pubchem assays (depositor defined):AID1566, AID1575, AID1578, AID1579, AID1849, AID1852, AID2264]; format: functional
[20] = target: T6, Interleukin-8 (Homo sapiens, UniProt P10145); assay: SAR analysis of GM-Tri-DAP induced IL-8 secretion in MCF-7/NOD1 cells - Set 2. [Related pubchem assays (depositor defined):AID1575, AID1578, AID2333]; format: functional, cell-based
T6 sequence (P10145 whole entry): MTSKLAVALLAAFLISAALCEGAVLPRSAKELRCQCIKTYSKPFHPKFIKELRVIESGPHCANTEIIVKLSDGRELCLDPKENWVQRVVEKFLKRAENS

[21] = target: T5, Nucleotide-binding oligomerization domain-containing protein 1; assay: SAR analysis of compounds that inhibit NOD1 - Set 2. [Related pubchem assays (depositor defined):AID1566, AID1575, AID1578, AID1849, AID1852, AID2333, AID2335, AID2798]; format: functional
[22] = target: T7, Nucleotide-binding oligomerization domain-containing protein 2 (Homo sapiens, UniProt Q9HC29); assay: inhibition of NOD2 signaling – set 2, SAR follow-up (AID 2475); format: functional
T7 sequence (Q9HC29 whole entry, the tested form may be a part): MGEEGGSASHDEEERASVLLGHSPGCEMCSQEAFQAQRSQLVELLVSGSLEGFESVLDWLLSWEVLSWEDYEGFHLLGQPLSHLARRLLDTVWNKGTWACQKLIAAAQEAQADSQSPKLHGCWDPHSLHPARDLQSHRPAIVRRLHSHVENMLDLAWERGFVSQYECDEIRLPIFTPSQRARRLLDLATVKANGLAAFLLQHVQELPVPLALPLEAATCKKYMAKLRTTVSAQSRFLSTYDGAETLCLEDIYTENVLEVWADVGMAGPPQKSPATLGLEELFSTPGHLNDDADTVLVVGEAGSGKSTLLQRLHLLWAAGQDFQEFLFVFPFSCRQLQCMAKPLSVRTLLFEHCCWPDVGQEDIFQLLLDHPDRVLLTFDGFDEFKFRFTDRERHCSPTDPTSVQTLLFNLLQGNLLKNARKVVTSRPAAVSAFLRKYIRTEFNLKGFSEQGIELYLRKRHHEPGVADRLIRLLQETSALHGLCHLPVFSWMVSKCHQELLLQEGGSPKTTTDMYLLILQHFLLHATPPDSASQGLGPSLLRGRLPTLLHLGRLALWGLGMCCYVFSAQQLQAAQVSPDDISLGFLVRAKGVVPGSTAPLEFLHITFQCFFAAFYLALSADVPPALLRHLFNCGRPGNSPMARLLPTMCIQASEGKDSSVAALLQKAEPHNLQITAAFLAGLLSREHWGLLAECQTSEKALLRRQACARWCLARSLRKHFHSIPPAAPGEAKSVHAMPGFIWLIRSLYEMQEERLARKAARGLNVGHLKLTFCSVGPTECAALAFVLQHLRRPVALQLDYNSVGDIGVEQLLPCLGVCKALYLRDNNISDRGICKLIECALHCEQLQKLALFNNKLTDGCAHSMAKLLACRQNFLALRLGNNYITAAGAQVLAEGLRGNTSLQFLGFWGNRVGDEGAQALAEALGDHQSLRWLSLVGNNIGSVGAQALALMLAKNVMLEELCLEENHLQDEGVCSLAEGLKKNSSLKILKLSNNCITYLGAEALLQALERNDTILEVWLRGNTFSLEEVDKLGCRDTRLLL

[23] = target: T7, Nucleotide-binding oligomerization domain-containing protein 2; assay: inhibition of MDP-driven NOD2 NF-kB reporter – cell-based, set 3, SAR follow-up (AID 2799); format: functional
[24] = tested on: HEK293; assay: SAR analysis of compounds that are cytotoxic to HEK293 - Set 3. [Related pubchem assays (depositor defined):AID1575, AID1578, AID1848, AID1849, AID2001, AID2333, AID2334, AID2335, AID2337, AID2469]; format: functional, cell-based; conditions: Homo sapiens
[25] = target: T6, Interleukin-8; assay: SAR analysis of Tumor necrosis factor alpha (TNF-alpha) induced IL-8 secretion in MCF-7/NOD1 cells - Set 2. [Related pubchem assays (depositor defined):AID1575, AID2250, AID2260]; format: functional, cell-based
[26] = target: T1, Cytochrome P450 2C9; conditions: Potency
[27] = target: T1, Cytochrome P450 2C9; remark: listed apart in the source

Sequence of SUMO E1/E2 (Q9UBE0 whole entry): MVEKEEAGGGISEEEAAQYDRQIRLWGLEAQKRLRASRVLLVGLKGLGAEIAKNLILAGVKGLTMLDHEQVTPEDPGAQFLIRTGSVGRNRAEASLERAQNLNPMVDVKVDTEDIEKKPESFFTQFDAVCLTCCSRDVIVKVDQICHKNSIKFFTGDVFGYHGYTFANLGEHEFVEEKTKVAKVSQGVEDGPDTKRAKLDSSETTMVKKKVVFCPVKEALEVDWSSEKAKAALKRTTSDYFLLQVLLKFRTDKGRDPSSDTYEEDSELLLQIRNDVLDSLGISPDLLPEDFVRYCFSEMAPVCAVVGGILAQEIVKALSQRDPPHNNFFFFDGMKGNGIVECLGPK
Sequence of SUMO E1/E2 (Q9UBT2 whole entry): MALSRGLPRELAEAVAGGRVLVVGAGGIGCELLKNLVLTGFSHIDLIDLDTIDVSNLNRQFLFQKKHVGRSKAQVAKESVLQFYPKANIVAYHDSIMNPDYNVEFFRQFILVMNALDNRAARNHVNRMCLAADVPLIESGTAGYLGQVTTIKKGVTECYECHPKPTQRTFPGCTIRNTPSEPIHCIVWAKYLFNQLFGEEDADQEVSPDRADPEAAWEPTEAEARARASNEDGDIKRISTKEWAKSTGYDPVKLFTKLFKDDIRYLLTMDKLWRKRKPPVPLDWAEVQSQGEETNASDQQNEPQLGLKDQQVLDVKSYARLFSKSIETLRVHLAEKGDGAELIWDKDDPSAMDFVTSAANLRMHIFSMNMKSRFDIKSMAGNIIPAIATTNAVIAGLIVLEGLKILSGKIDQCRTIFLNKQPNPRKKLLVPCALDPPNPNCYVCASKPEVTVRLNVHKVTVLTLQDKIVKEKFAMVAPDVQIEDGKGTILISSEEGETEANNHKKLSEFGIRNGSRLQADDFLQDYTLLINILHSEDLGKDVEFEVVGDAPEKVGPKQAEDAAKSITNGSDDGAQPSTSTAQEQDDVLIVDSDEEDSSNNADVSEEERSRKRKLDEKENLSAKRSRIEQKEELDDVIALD
Sequence of SUMO E1/E2 (P63279 whole entry): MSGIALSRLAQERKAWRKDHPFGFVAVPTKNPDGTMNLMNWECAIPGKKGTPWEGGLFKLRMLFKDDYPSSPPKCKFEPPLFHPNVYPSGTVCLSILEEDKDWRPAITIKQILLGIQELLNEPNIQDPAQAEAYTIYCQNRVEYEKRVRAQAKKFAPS

Q: For `Cc1ccsc1/C=N/c1ccc(C(N)=O)cc1`, which IC50 [1] is on record?
A: > 100 µM (inactive)

Q: What does the source list for `O=C(O)CC1(C(=O)O)CCCCC1`?
A: AC50 [2]: inconclusive; AC50 [3]: inconclusive

Q: Which AC50 [4] does the source give for `c1ccc(C(c2ccccc2)N2CC3(CCNCC3)C2)cc1` here?
A: inconclusive

Q: And the AC50 [5]?
A: 39.8 µM (inconclusive)

Q: And the AC50 [6]?
A: 15.8 µM (inconclusive)

Q: What does the source list for `COc1cc(/C=N/N=C(N)N)ccc1OCc1ccc(Cl)cc1`?
A: EC50 [7]: > 30 µM (not active); IC50 [8]: 1.03 µM (active); AC50 [9]: 2.95 µM (active); IC50 [10]: 0.916 µM (active); IC50 [11]: 12.9 µM (active); IC50 [12]: > 20 µM (inactive); CC50 [13]: 5.63 µM (active); IC50 [14]: 13.2 µM (active); EC50 [15]: 0.397 µM (active)

Q: Which IC50 [8] does the source give for `CC(C)Oc1cccc(C(=O)C2CCCN(Cc3cccn3-c3ccccn3)C2)c1` (stereo unspecified) here?
A: 3.3 µM (active)

Q: What about the IC50 [10] of the same molecule?
A: 7.53 µM (active)

Q: Which AC50 [4] does the source give for `OCCN1CCOCCOCCN(CCO)CCN(CCO)CC1` here?
A: inconclusive

Q: Which IC50 [16] does the source give for `CCCn1c(SCC(=O)Nc2nc3c(s2)CCCC3)nc2c1c(=O)n(C)c(=O)n2C` here?
A: 2.12 µM (active)

Q: What about the IC50 [17] of the same molecule?
A: 1.36 µM (active)

Q: And the IC50 [18]?
A: > 20 µM (inactive)

Q: What about the IC50 [19] of the same molecule?
A: > 25 µM (inactive)

Q: And the IC50 [20]?
A: > 25 µM (inactive)

Q: And the IC50 [21]?
A: 1.63 µM (active)

Q: What about the IC50 [22] of the same molecule?
A: 1.98 µM (active)

Q: What about the IC50 [23] of the same molecule?
A: 1.2 µM (active)

Q: And the IC50 [24]?
A: > 20 µM (inactive)

Q: And the IC50 [25]?
A: > 25 µM (inactive)

Q: With `COc1cc2c(c(OC)c1OC)-c1ccc(OC)c(=O)cc1[C@H](NC(C)=O)CC2` as the molecule, how does the AC50 [26] read?
A: 39.8 µM (inconclusive)

Q: What about the AC50 [2] of the same molecule?
A: inactive

Q: And the AC50 [27]?
A: inactive
